From patent US8293769B2, “CSF-1R inhibitors, compositions, and methods of use” (Novartis AG, priority 2008, dated 2012)

What was measured:
[1] = tested on: MNFS60 (murine AML cells); assay: Cell viability assay in MCSF dependent MNFS60 cells (Cell Titer Glo); type: cell-based; conditions: Mus musculus; tested at about 1 μM; MCSF 10 ng/mL, 72 hrs; read-out: CPEC50 MNFS60MCSF percent inhibition
Experimental: Cell viability was assessed by Cell Titer Glo, Promega. MNFS60 (murine AML cells) were seeded in TC treated 96-well plates at a density of 5,000 cells per well in RPMI-1640, 10% FBS, and 1% Penicillin Streptomycin prior to addition of compound. Test compounds were serially diluted (3 fold) in DMSO to 500× the final concentration. For each concentration of test compound, 2 μl (500×) aliquots of compound or 100% DMSO (control) were diluted in 500 μl of culture medium that contained 2× final concentration of growth factor MCSF for 2× concentration and then diluted 1× on the cells. Final concentration of MCSF is 10 ng/mL. Cells were incubated for 72 hrs at 37° C., 5% CO2. After the incubation 100 μl Cell Titer Glo is added to each well to determine viable cells. The assay was performed according to the manufacturer's instruction (Promega Corporation, Madison, Wis. USA). Each experimental condition was performed in triplicate. Raw data was imported in Abase and EC50s calculated with XL-fit data analysis software: Relative light units of wells that contained cells without MCSF in the media and as a consequence didn't grow were defined as 100% inhibited.

cKIT = molecular target: T1, cKIT (Homo sapiens, UniProt P10721); assay: cKIT kinase in vitro biochemical assay (alphascreen); conditions: tested at about 1 μM; read-out: CKIT percent inhibition
T1 construct: The kinase domain of cKIT was assayed in 50 mM Hepes; purchased Upstate 14-559
Experimental: (§1) The IC50 values for the inhibition of RTKs were determined in the alphascreen format measuring the inhibition by compound of phosphate transfer to a substrate by the respective enzyme. Briefly, the respective RTK domain purchased as human recombinant protein (cKIT Upstate #14-559, PDGFRb Invitrogen #P3082) were incubated with serial dilutions of compound in the presence of substrate and ATP concentrations within 3 times the Km of the enzyme.
(§2) The kinase domain of cKIT was assayed in 50 mM Hepes, pH=7.5, 5 mM MgCl2, 10 mM MnCl2, 1 mM DTT, 0.1% BSA with 0.06 uM biotinylated peptide substrate (GGLFDDPSYVNVQNL-NH2) and 15 uM ATP (ATP KM apparent=15 uM). The kinase domain of PDGFRβ was assayed in 50 mM Hepes, pH=7.5, 20 mM MgCl2, 1 mM DTT, 0.1% BSA with 0.1 uM biotinylated peptide substrate (GGLFDDPSYVNVQNL-NH2) and 10 uM ATP (ATP KM apparent=25 uM). Reactions were incubated at room temperature for 3 to 4 hr and stopped with buffer (20 mM EDTA, 0.01% Tween-20 for both PDGFRb and cKIT). Alphascreen PY20 beads were added to the stopped cKIT reactions and PY20 Ab/Protein A Alphascreen beads were added to the PDGFRβ stopped reactions. Both reactions were incubated overnight and read on the Alphascreen reader. The concentration of compound for 50% inhibition (IC50) was calculated employing non-linear regression using XL-Fit data analysis software. As a control compound, staurosporine is run in every assay and a Z′>0.5 is required to validate results.

PDGFRb = molecular target: T2, PDGFRb (Homo sapiens, UniProt P09619); assay: PDGFRb kinase in vitro biochemical assay (alphascreen); conditions: tested at about 1 μM; read-out: PDGF RK BETA percent inhibition
T2 construct: The kinase domain of PDGFRβ was assayed in 50 mM Hepes; purchased Invitrogen P3082
Experimental: as §1, §2

[2] = molecular target: T3, cytoplasmic domain of the human CSF-1R (Homo sapiens, UniProt P07333); assay: In vitro kinase assay for CSF-1R (AlphaScreen); type: biochemical; conditions: tested at about 1 μM; read-out: CSF1RK 1 percent inhibition
T3 construct: Recombinant protein corresponding to the cytoplasmic domain of the human CSF-1R; purchased Invitrogen Corporation, Carlsbad, Calif; PV3249
T3 sequence (P07333 539-972 limits assumed): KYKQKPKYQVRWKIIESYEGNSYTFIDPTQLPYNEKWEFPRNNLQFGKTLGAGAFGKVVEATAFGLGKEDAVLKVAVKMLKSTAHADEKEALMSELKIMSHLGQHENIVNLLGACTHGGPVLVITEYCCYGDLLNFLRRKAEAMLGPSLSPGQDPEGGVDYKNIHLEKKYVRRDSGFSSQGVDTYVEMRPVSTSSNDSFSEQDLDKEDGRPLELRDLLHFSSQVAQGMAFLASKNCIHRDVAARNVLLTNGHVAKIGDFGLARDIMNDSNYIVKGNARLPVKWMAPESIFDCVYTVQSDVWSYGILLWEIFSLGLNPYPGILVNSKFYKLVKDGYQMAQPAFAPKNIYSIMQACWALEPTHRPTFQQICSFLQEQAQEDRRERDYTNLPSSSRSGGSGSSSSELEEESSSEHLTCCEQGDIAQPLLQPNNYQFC
Experimental: The kinase activity of various protein tyrosine kinases can be measured by providing ATP and a suitable peptide or protein tyrosine-containing substrate, and assaying the transfer of phosphate moiety to the tyrosine residue. Recombinant protein corresponding to the cytoplasmic domain of the human CSF-1R was purchased from Invitrogen Corporation, Carlsbad, Calif. U.S.A. (#PV3249). For each assay, test compounds were serially diluted, starting at 25 μM with 3 fold dilutions, in DMSO in 384 well plates then mixed with an appropriate kinase reaction buffer consisting of 50 mM Hepes, 5 mM MgCl2, 10 mM MnCl2, 0.1% BSA, pH 7.5, 1.0 mM dithiothreitol, 0.01% Tween 80 plus 1 μM ATP. Kinase protein and an appropriate biotinylated peptide substrate at 50 nM were added to give a final volume of 20 μL, reactions were incubated for 2 hours at room temperature and stopped by the addition of 10 μL of 45 mM EDTA, 50 mM Hepes pH 7.5. Added to the stopped reaction mix was 30 μL of PT66 Alphascreen beads (Perkin Elmer, Boston, Mass., U.S.A.). The reaction was incubated overnight and read on the Envision (Perkin Elmer). Phosphorylated peptide product was measured with the AlphaScreen system (Perkin Elmer) using acceptor beads coated with anti-phosphotyrosine antibody PT66 and donor beads coated with streptavidin that emit a fluorescent signal at the 520-620 nm emission wave length if in close proximity. The concentration of each compound for 50% inhibition (IC50) was calculated by non-linear regression using XL Fit data analysis software.
CSF-1R kinase was assayed in 50 mM Hepes pH 7.0, 5 mM MgCl2, 10 mM MnCl2, 1 mM DTT, 1 mg/mL BSA, 1.0 μM ATP, and 0.05 μM biotin-GGGGRPRAATF-NH2 (SEQ ID NO:1) peptide substrate. CSF-1R kinase was added at final concentration of 4 nM.

T1 sequence (P10721 589-937 limits assumed): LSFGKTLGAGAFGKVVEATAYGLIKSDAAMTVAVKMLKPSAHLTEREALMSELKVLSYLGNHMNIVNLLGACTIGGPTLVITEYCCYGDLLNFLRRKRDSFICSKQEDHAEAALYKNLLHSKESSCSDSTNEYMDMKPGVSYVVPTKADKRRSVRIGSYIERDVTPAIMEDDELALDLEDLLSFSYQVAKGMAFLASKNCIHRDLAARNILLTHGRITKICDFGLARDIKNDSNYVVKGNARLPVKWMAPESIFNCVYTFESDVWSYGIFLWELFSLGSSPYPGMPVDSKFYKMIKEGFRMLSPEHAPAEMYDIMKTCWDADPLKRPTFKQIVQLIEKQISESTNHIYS
T2 sequence (P09619 600-962 limits assumed): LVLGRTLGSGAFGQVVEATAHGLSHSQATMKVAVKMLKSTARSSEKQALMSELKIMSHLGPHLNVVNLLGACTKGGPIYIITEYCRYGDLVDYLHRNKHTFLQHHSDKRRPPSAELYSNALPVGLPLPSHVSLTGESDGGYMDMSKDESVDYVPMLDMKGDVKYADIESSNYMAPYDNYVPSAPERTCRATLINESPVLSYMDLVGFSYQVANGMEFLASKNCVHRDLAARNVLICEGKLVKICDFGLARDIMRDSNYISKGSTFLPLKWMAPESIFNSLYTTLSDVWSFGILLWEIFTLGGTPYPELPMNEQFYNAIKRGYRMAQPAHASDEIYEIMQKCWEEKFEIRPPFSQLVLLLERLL

Row | Structure (SMILES) | inhibition at 1 µM (cKIT) | inhibition at 1 µM (PDGFRb) | inhibition at 1 µM [2] | inhibition at 1 µM [1]
1 | Clc1ccncc1Oc1ccc2nc(NCC3CCCCC3)sc2c1 [Compound 1, 6-(4-chloropyridin-3-yloxy)-N-(cyclohexylmethyl)benzo[d]thiazol-2-amine] | 66% | 34% | 100% | 22%
2 | O[C@@H]1CCCC[C@H]1Nc1nc2ccc(Oc3cnccc3Cl)cc2s1 [Compound 7, (1R,2R)-2-(6-(4-chloropyridin-3-yloxy)benzo[d]thiazol-2-ylamino) cyclohexanol] | 25% | 11% | 100% | 42%
3 | Nc1cc(Oc2ccc3nc(NCC4CCCCC4)sc3c2)ncn1 [Compound 8, 6-(6-aminopyrimidin-4-yloxy)-N-(cyclohexylmethyl) benzo[d]thiazol-2-amine] | 75% | 46% | 100% | 30%
4 | Nc1cc(Oc2ccc3nc(N[C@@H]4CCCC[C@H]4O)sc3c2)ncn1 [Compound 9, (1R,2R)-2-(6-(6-aminopyrimidin-4-yloxy)benzo[d]thiazol-2-ylamino) cyclohexanol] | 13% | 2% | 97% | 15%
5 | CNC(=O)c1cc(Oc2ccc3nc(NCC4CCCCC4)sc3c2)nc(OC)n1 [Compound 10, 6-(2-(Cyclohexylmethylamino)benzo[d]thiazol-6-yloxy)-2-methoxy-n-methylpyrimidine-4-carboxamide] | 16% | 5% | 96% | 27%
6 | CNc1cc(Oc2ccc3nc(NCC4CCCCC4)sc3c2)ncn1 [Compound 13, N-(cyclohexylmethyl)-6-(6-(methylamino)pyrimidin-4-yloxy)benzo[d]thiazol-2-amine] | 42% | 30% | 98% | 18%
7 | COc1cc2ncnc(Oc3ccc4nc(NCC5CCCCC5)sc4c3)c2cc1OC [Compound 17, N-(cyclohexylmethyl)-6-(6,7-dimethoxyquinazolin-4-yloxy)benzo[d] thiazol-2-amine] | 99% | 98% | 100% | 100%
8 | O[C@@H]1CCCC[C@H]1Nc1nc2ccc(Oc3ncnc4ccccc34)cc2s1 [Compound 18, (1R,2R)-2-(6-(quinazolin-4-yloxy)benzo[d]thiazol-2-ylamino)cyclohexanol] | 22% | 11% | 100% | 38%
9 | COc1cc2ncnc(Oc3ccc4nc(N[C@@H]5CCCC[C@H]5O)sc4c3)c2cc1OC [Compound 19, (1R,2R)-2-(6-(6,7-dimethoxyquinazolin-4-yloxy)benzo [d]thiazol-2-ylamino) cyclohexanol] | 34% | 30% | 100% | 100%
10 | Cn1cc(-c2cc(Oc3ccc4nc(NCC5CCCCC5)sc4c3)ncn2)cn1 [Compound 20, N-(cyclohexylmethyl)-6-(6-(1-methyl-1H-pyrazol-4-yl)pyrimidin-4-yloxy)benzo[d]thiazol-2-amine] | 99% | 82% | 100% | 96%

Further lines, with some results ahead:

Row | inhibition at 1 µM (cKIT) | inhibition at 1 µM (PDGFRb) | inhibition at 1 µM [2] | Structure (SMILES) | inhibition at 1 µM [1]
11 | 90% | 31% | 100% | C[C@H](Nc1nc2ccc(Oc3ccc(N)nc3)cc2s1)C1CCCCC1 [Compound 100, (S)-6-(6-aminopyridin-3-yloxy)-N-(1-cyclohexylethyl)benzo[d]thiazol-2-amine] | 
12 | 11% | 7% | 86% | Cn1cc(-c2cc(Oc3ccc4nc(N[C@@H]5CCCC[C@H]5O)sc4c3)cnc2Cl)cn1 [Compound 102, (1R,2R)-2-(6-(6-chloro-5-(1-methyl-1H-pyrazol-4-yl)pyridin-3-yloxy)benzo[d]thiazol-2-ylamino)cyclohexanol] | 
13 | 15% | 15% | 86% | Nc1ccc(-c2cc(Oc3ccc4nc(N[C@@H]5CCCC[C@H]5O)sc4c3)cnc2Cl)cn1 [Compound 104, (1R,2R)-2-(6-(6′-amino-2-chloro-3,3′-bipyridin-5-yloxy)benzo[d]thiazol-2-ylamino)cyclohexanol] | 
14 | 9% | 9% | 43% | O[C@@H]1CCCC[C@H]1Nc1nc2ccc(Oc3cnc(Cl)c(-c4cccnc4)c3)cc2s1 [Compound 105, (1R,2R)-2-(6-(2-chloro-3,3′-bipyridin-5-yloxy)benzo[d]thiazol-2-ylamino) cyclohexanol] | 
15 | 13% | 18% | 81% | Cn1cc(-c2cc(Oc3ccc4nc(N[C@@H]5CCCC[C@H]5O)sc4c3)cnc2-c2cnn(C)c2)cn1 [Compound 106, (1R,2R)-2-(6-(5,6-bis(1-methyl-1H-pyrazol-4-yl)pyridin-3-yloxy)benzo[d]thiazol-2-ylamino) cyclohexanol] | 
16 | 10% | 23% | 93% | Nc1ccc(-c2cc(Oc3ccc4nc(N[C@@H]5CCCC[C@H]5O)sc4c3)cnc2-c2ccc(N)nc2)cn1 [Compound 108, (1R,2R)-2-(6-(5,6-bis(6-amino-pyridin-3-yl)pyridin-3-yloxy)benzo[d]thiazol-2-ylamino)cyclohexanol] | 
17 | 11% | 16% | 48% | O[C@@H]1CCCC[C@H]1Nc1nc2ccc(Oc3cnc(-c4cccnc4)c(-c4cccnc4)c3)cc2s1 [Compound 109, (1R,2R)-2-(6-(5,6-bis(pyridin-3-yl)pyridin-3-yloxy)benzo[d]thiazol-2-ylamino)cyclohexanol] | 
